Molecules are shown by their SMILES. A value given as a limit tells only on which side of the number the result lay.

The target of one assay is T1, ULK1 kinase (Homo sapiens, UniProt O75385).
T1 construct: purchased Eurofins 14-959
T1 sequence (O75385 with tags, fused parts or gaps): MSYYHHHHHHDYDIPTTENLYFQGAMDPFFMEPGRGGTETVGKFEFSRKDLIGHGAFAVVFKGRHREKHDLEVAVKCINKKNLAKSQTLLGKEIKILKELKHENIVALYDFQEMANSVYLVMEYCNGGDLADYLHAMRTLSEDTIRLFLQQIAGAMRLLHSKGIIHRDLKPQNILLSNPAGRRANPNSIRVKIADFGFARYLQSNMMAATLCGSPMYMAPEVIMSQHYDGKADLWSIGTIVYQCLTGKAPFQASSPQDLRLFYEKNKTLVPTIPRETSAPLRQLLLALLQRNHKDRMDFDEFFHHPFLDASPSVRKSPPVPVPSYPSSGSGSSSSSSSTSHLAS
Put plainly: Biochemical assay for ULK1.2 (coupled pyruvate kinase/lactate dehydrogenase assay). The settings on record: 19 nM ULK1 (Eurofins), myelin basic protein, 1 mM ATP. The procedure:
Example 174. Biochemical Assay for ULK1.2
(§1) Activity of ULK1 kinase was determined spectroscopically using a coupled pyruvate kinase/lactate dehydrogenase assay that continuously monitors the ATP hydrolysis-dependent oxidation of NADH (e.g., Schindler et al. Science (2000) 289: 1938-1942). Assays were conducted in 384-well plates (100 uL final volume) using 19 nM ULK1 (Eurofins CAT #14-959), 0.25 mg/mL myelin basic protein, 1.5 units pyruvate kinase, 2.1 units lactate dehydrogenase, 1 mM phosphoenol pyruvate, 0.28 mM NADH and 1 mM ATP in assay buffer (100 mM Tris, pH 7.5, 15 mM MgCl2, 0.5 mM DTT, 0.1% octyl-glucoside, 0.002% (w/v) BSA, and 0.002% Triton X-100). Inhibition of ULK1 was measured by adding serial diluted test compound (final assay concentration of 1% DMSO). A decrease in absorption at 340 nm was monitored continuously for 6 hours at 30° C. on a multi-mode microplate reader (BioTek). The reaction rate was calculated using the 2-3 h time frame. The reaction rate at each concentration of compound was converted to percent inhibition using controls (i.e. reaction with no test compound and reaction with a known inhibitor) and IC50 values were calculated by fitting a four-parameter sigmoidal curve to the data using Prism (GraphPad software).

The subject of assay [1] is phospho-Serine 318 ATG13 (pATG13), ULK kinase substrate, in A549 (KRAS mutant) cells. As to the kind of experiment: pATG13 levels of mutant KRas A549 cells after treatment with ULK inhibitors in combination with trametinib (ELISA). The settings on record: with 250 nM trametinib. The assay is classed as cell-based, human. The procedure: Example 177. Cellular Inhibition of ULK Kinase Substrate ATG13 Protein pATG13 Levels of Mutant KRas A549 Cells after Treatment with ULK Inhibitors in Combination with Trametinib
A549 (KRAS mutant) human lung cancer cells (6,000 cells/well) were added to a 384-well tissue-culture treated plate in 50 μL of pre-warmed DMEM medium supplemented with 10% characterized fetal bovine serum (Invitrogen, Carlsbad, Calif.), 100 units/mL penicillin G, and 100 μg/mL streptomycin and allowed to grow overnight at 37° C., 5% CO2, and 95% humidity. The following day, 10 μL of media containing trametinib or DMSO as a control was added to wells. The final concentration of trametinib in wells was 250 nM. A dose response of a test compound (0.6 μL per well) was added. DMSO (0.6 μL) was added to control wells. The plate was briefly shaken to mix wells and then incubated at 37° C. overnight. The next day, the media was aspirated and cells were washed with Dulbecco's Phosphate Buffered Saline (Gibco). Cells were lysed using MPER lysis buffer (Pierce, Rockford, Ill.) containing Halt Phosphatase and Protease Inhibitors (Pierce, Rockford, Ill.) and Phosphatase inhibitor cocktail 2 (Sigma, St. Louis, Mo.) at 4° C. for 10 minutes with shaking.
Cellular levels of phospho-Serine 318 ATG13 (pATG13) were measured via an ELISA method. Total ATG13 Antibody (Cell Signaling Cat #13273) was used to coat the wells. The plate was incubated at 4° C. overnight and washed with ELISA wash buffer (Biolegend Cat #421601). The wells were then blocked with assay diluent (Biolegend Cat #421203) for 1 hour at room temperature. Plate wells were washed with ELISA wash buffer. Cell lysate was added to wells and incubated at room temperature for 2 hours. Plate wells were washed with ELISA wash buffer. Biotinylated pS318-ATG13 antibody (Rockland Immunochemicals Cat #600-401-C49) was diluted in assay diluent and added to each well and incubated at room temperature for 1 hour. Plate wells were washed with ELISA wash buffer. Streptavidin linked to horseradish peroxidase (Thermo Fisher Cat #21140) was diluted in assay diluent and added to each well and incubated at room temperature for 1 hour. Plate wells were washed with ELISA wash buffer. High sensitivity TMB substrate (Biolegend Cat #421101) was added to each well and incubated at room temperature for 20 minutes. The reaction was stopped with 2N Sulfuric Acid. The plate was analyzed at on a plate reader measuring absorbance at 450 nm and 540 nm (background). Signal was calculated by first subtracting the background absorbance at 540 nm from the absorbance at 450 nm for each well. Next, the background corrected absorbance at 450 nm from blank wells was subtracted from test wells. Data was compared to control wells to determine % ATG13 phosphorylation. GraphPad Prism was used to calculate IC50 values.
On the technique in general: ELISA stands for enzyme-linked immunosorbent assay.

The target of the next assay is T2, ULK2 kinase (Homo sapiens, UniProt Q8IYT8).
T2 construct: purchased Eurofins 14-772
Put plainly: Biochemical assay for ULK2 (coupled pyruvate kinase/lactate dehydrogenase assay). To be noted: 9.7 nM ULK2 (Eurofins), myelin basic protein, 1 mM ATP; read-out: ULK2.2. How it is done:
Example 176. Biochemical Assay for ULK2
as §1, with “of ULK2” for “of ULK1”, “using 9.7” for “using 19”, “nM ULK2” for “nM ULK1”, “CAT #14-772),” for “CAT #14-959),”

Another assay has as its target T3, LRRK2 kinase (Homo sapiens, UniProt Q5S007).
T3 construct: purchased Thermo Fisher
As to the kind of experiment: Biochemical assay for LRRK2 (coupled pyruvate kinase/lactate dehydrogenase assay). The settings on record: 26.4 nM LRRK2 (residues 970-2528), 0.1 mM peptide substrate, 1 mM ATP. How it is done: Example 182. Biochemical Assay for LRRK2 (SEQ. ID NO. 4)
Activity of LRRK2 kinase was determined spectroscopically using a coupled pyruvate kinase/lactate dehydrogenase assay that continuously monitors the ATP hydrolysis-dependent oxidation of NADH (e.g., Schindler et al. Science (2000) 289: 1938-1942). Assays were conducted in 384-well plates (100 uL final volume) using 26.4 nM LRRK2 (Thermo Fisher), 0.1 mM peptide substrate (RLGRDKYKTLRQIRQ (SEQ ID NO: 6)), 1.5 units pyruvate kinase, 2.1 units lactate dehydrogenase, 1 mM phosphoenol pyruvate, 0.28 mM NADH and 1 mM ATP in assay buffer (100 mM Tris, pH 7.5, 15 mM MgCl2, 0.5 mM DTT, 0.004% (w/v) BSA, and 0.004% Triton X-100). Inhibition of LRRK2 was measured by adding serial diluted test compound (final assay concentration of 1% DMSO). A decrease in absorption at 340 nm was monitored continuously for 6 hours at 30° C. on a multi-mode microplate reader (BioTek). The reaction rate was calculated using the 2-3 h time frame. The reaction rate at each concentration of compound was converted to percent inhibition using controls (i.e. reaction with no test compound and reaction with a known inhibitor) and IC50 values were calculated using software routines in Prism (GraphPad software).

T3 sequence (Q5S007 with tags, fused parts or gaps): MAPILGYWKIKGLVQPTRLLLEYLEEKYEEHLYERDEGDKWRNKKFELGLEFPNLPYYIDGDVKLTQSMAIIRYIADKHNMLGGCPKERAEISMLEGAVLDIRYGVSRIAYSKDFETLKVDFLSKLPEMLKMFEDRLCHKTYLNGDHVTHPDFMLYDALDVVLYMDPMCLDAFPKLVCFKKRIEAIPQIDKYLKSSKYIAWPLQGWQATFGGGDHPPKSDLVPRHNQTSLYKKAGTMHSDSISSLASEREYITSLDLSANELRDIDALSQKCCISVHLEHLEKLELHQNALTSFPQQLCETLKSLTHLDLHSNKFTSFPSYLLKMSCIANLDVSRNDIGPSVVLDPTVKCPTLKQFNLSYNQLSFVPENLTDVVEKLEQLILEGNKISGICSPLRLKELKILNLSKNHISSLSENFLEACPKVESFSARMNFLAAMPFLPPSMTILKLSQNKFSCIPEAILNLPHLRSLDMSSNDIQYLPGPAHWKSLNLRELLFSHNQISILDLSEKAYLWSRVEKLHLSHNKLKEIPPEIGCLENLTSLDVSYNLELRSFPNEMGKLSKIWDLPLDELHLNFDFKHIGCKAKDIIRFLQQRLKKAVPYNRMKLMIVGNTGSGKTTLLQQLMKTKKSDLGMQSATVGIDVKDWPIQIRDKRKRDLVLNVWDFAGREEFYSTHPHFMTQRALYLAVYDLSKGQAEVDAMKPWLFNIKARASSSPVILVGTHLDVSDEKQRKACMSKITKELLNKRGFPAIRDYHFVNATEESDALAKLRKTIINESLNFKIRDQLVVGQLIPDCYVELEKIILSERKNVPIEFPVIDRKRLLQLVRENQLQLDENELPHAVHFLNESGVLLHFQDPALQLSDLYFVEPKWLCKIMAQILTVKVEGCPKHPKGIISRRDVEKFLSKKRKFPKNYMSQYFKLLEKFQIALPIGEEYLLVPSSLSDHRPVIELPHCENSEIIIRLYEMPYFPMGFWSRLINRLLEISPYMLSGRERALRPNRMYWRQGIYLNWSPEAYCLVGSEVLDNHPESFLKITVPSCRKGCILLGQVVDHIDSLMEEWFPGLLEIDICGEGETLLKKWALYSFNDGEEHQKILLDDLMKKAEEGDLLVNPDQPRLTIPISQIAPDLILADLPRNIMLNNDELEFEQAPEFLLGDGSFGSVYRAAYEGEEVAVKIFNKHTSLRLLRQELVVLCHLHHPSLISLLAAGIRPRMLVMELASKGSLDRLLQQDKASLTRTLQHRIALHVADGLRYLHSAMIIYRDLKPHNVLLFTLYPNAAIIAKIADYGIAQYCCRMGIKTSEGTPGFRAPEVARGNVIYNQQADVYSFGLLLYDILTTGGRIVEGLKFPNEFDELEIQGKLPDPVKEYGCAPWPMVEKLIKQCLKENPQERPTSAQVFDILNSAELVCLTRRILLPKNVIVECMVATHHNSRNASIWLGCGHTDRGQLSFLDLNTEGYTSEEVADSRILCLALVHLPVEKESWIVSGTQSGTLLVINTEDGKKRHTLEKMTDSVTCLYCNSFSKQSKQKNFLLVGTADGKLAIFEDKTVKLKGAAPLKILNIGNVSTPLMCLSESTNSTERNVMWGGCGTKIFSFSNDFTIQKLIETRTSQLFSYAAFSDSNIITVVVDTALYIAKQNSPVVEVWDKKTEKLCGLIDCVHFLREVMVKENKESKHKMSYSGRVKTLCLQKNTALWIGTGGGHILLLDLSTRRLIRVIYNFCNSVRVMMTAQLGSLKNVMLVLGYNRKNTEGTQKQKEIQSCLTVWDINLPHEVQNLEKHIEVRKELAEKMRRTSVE
T2 sequence (Q8IYT8 with tags, fused parts or gaps): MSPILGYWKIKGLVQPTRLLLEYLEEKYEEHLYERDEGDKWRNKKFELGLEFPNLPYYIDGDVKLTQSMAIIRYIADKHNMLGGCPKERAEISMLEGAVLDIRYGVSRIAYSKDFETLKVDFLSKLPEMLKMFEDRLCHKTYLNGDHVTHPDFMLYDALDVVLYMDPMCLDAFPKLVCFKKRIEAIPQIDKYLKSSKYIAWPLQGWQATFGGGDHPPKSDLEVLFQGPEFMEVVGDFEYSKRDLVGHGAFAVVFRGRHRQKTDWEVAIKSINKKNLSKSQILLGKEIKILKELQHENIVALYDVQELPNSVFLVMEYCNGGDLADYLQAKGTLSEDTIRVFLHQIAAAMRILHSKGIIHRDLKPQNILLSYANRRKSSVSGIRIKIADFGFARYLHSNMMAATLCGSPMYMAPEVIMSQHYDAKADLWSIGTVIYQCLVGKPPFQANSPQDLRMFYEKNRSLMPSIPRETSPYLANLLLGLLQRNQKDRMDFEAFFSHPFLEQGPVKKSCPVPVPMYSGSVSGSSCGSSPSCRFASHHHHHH

In the case of `Cc1nn(C2CCNCC2)cc1Nc1ncc(C(F)(F)F)c(NCCCN2CCCC2=O)n1` [Example 103], the IC50 on ULK1 kinase was 25 to 100 nM; in assay [1] it was over 600 nM; at ULK2 kinase, 25 to 100 nM.
In the case of `Cc1nn(C2CCNCC2)cc1Nc1ncc(Cl)c(NCCCN2CCCCCC2=O)n1` [Example 86], the results for the IC50 (against ULK1 kinase; in assay [1]; on ULK2 kinase) were 25 to 100 nM, over 600 nM and 100 to 500 nM, respectively.
As to `Cc1nn(C2CCNCC2)cc1Nc1ncc(Cl)c(NCCCN2CCCCC2=O)n1` [Example 27], the results for the IC50 (against ULK1 kinase; in assay [1]; on ULK2 kinase) were 25 to 100 nM, over 600 nM and 100 to 500 nM, respectively.
The corresponding values for `Cc1nn(C2CCN(C)CC2)cc1Nc1ncc(Br)c(NCCCN2CCCCC2=O)n1` [Example 51] are 1 to 25 nM, over 600 nM and 25 to 100 nM.
The corresponding values for `O=C1CCCCCN1CCCNc1nc(Nc2cnn(C3CCNCC3)c2)ncc1C(F)(F)F` [Example 77] are 1 to 25 nM, 100 to 300 nM and 1 to 25 nM.
For `O=C1CCCCN1CCCNc1nc(Nc2cnn(C3CCNCC3)c2)ncc1Cl` [Example 4] the same measures were 1 to 25 nM, over 600 nM and 25 to 100 nM.
Consider `Cc1nn(CCN2CCCC2)cc1Nc1ncc(C(F)(F)F)c(NCCCN2CCCCC2=O)n1` [Example 45], for which the IC50 is 100 to 500 nM at ULK1 kinase and over 600 nM against LRRK2 kinase.
The corresponding values for `Cc1nn(C2CCN(C3COC3)CC2)cc1Nc1ncc(C(F)(F)F)c(NCCCN2CCCCC2=O)n1` [Example 33] are 100 to 500 nM and 300 to 600 nM.
`C[C@@H](CCNc1nc(Nc2cnn(C3CCN(C4CC4)CC3)c2)ncc1Cl)N1CCCC1=O` [Example 156]: the values for the IC50 against ULK1 kinase and against LRRK2 kinase were over 500 nM and 300 to 600 nM, respectively.
As to `CC1CCC(=O)N1CCCNc1nc(Nc2cnn(C3CCN(C4CC4)CC3)c2)ncc1Cl` (stereo not drawn) [Example 150], the IC50 was 100 to 500 nM against ULK1 kinase and 100 to 300 nM on LRRK2 kinase.
The corresponding values for `Cc1nn(C2CCN(C)CC2)cc1Nc1ncc(C2CC2)c(NCCCN2CCCOCC2=O)n1` [Example 111] are over 500 nM and over 600 nM.
The corresponding values for `Cc1nn(C2CN(CC(C)C)C2)cc1Nc1ncc(Cl)c(NCCCN2CCCCC2=O)n1` [Example 38] are over 500 nM and over 600 nM.
As to `CN1CCC(n2cc(Nc3ncc(Cl)c(NCCCN4CCCCC4=O)n3)cn2)CC1` [Example 2], the IC50 lay in the range of 1 to 25 nM against ULK1 kinase and 25 to 100 nM on ULK2 kinase.
Take `CC(C)CN1CC(n2cc(Nc3ncc(Br)c(NCCCN4CCCC4=O)n3)cn2)C1` [Example 165]: the IC50 was in the range of 100 to 500 nM at ULK1 kinase and 300 to 600 nM at LRRK2 kinase.
The corresponding values for `CCc1nn(C2CCNCC2)cc1Nc1ncc(Cl)c(NCCCN2CCCCC2=O)n1` [Example 39] are 100 to 500 nM and over 600 nM.
For `Cc1nn(CCCN2CCOCC2)cc1Nc1ncc(Cl)c(NCCCN2CCOCCC2=O)n1` [Example 135] the same measures were over 500 nM and over 600 nM.
For `Cc1nn(CCN2CCOCC2)cc1Nc1ncc(C(F)(F)F)c(NCCCN2CCCCCC2=O)n1` [Example 98] the same measures were 100 to 500 nM and 100 to 300 nM.
For `CC(C)CN1CC(n2cc(Nc3ncc(C(F)(F)F)c(NCCCN4CCCC4=O)n3)cn2)C1` [Example 170], the figures for the IC50 against ULK1 kinase and on LRRK2 kinase were 100 to 500 nM and 300 to 600 nM, respectively.
For `Cc1nn(CCN2CCCC2)cc1Nc1ncc(Br)c(NCCCN2CCCCC2=O)n1` [Example 62] the same measures were 100 to 500 nM and over 600 nM.
For `CCN1CC[C@H](n2cc(Nc3ncc(C(F)(F)F)c(NCCCN4CCCC4=O)n3)c(C)n2)C1` [Example 168] the same measures were 100 to 500 nM and over 600 nM.
`CCc1nn(C2CCNCC2)cc1Nc1ncc(Br)c(NCCCN2CCCCC2=O)n1` [Example 41]: the IC50 was in the range of 25 to 100 nM at ULK1 kinase and 100 to 500 nM on ULK2 kinase.
For the molecule `C[C@@H](CCNc1nc(Nc2cnn(C3CCN(C)CC3)c2)ncc1Cl)N1CCCC1=O` [Example 157], the IC50 at ULK1 kinase is over 500 nM; at LRRK2 kinase it was over 600 nM.
The corresponding values for `Cc1nn([C@@H]2CCNC2)cc1Nc1ncc(Br)c(NCCCN2CCCC2=O)n1` [Example 164] are 100 to 500 nM and 300 to 600 nM.
Take `Cc1nn(C2CN(CC(C)C)C2)cc1Nc1ncc(C(F)(F)F)c(NCCCN2CCCCC2=O)n1` [Example 23]: the IC50 was 25 to 100 nM against ULK1 kinase and over 600 nM against LRRK2 kinase.

The values are drawn from patent US11518758B2, “Heteroarylaminopyrimidine amide autophagy inhibitors and methods of use thereof” (Deciphera Pharmaceuticals, LLC, priority 2019, dated 2022).
